Results taken from patent US5342604A (The Dow Chemical Company, priority 1992, dated 1994).
Structures can show the parent of a compound that is named as a salt. Where two headings read alike, the source gives them in different places.

Assays:
[1] = Percent complex determination, samarium complexes (Sephadex C-25 cation exchange); assay type: physicochemical
Procedure: (§1) A disposable 10 ml plastic (Biorad) column was filled with 1 to 2 ml of water-swelled Sephadex™ C-25 cation exchange resin. The water was pressure eluted to the top of the resin. Fifteen μl of the complex (or more if counts were low) were added to the top of the resin. This was followed by 2 ml of 4:1 (V:V) isotonic saline:conc. ammonium hydroxide solution as an eluent which was allowed to drip into a counting tube. This was also pressure eluted to the top of the resin. An additional 2 ml of the eluent were added and the column pressure eluted to remove all liquid. The dried resin was then placed in a third counting tube and the three tubes counted on a NaI well counter using a Canberra multichannel analyzer linked to a computer. The percent complex was determined by dividing the number of counts in the two elutions by the total counts in the elutions plus the column, all times 100.
Samarium complexes were formed as described previously for yttrium complexes except that 0.0003M samarium was prepared by dissolution of Sm2 03 (348.7 g mole) in 0.1M hydrochloric acid. […] Percent complex determination was made in the same manner as for the yttrium complex.

[2] = In vivo screening of bifunctional chelates: biodistribution, percent injected dose in liver; details: rat, i.v. tail vein, 2 hours
Procedure: (§3) Also samarium was injected as samarium chloride in unchelated form.
(§4) Sprague-Dawley rats weighing from 150 to 200 g were purchased from Charles River Laboratories. These animals were placed in cages and fed water and food ad libitum. The animals were acclimated for at least five days before use. Prior to injection of complex, the animals were placed under a heat lamp (15 to 30 minutes) to dilate the tail vein. Then, the animal was placed in a restraining cage, the tail cleaned with an alcohol swipe, and the animal injected (50 to 200 μl) via the tail vein. After injection, the animal was placed in another cage for two hours after which time the animal was sacrificed by cervical dislocation. The animal was then dissected, the parts rinsed with deionized H2 O, patted dry, and weighed into a tared counting vial. Whatever size of injection was made, at least three standards of the same material were prepared and counted with the animal parts.

[3] = Inertness of samarium complex to pH change; assay type: physicochemical
Procedure: as §1, with “100. By this method, uncomplexed yttrium was retained on the column.” for “100.”
(§2) One portion was treated with 1-2 μl portions of 0.1N hydrochloric acid until the pH was lowered and the other portion was treated with 0.1N sodium hydroxide to bring the pH up. The complexes were allowed to set for 5-10 minutes at each pH change, then they were sampled to determine the percent complexation at that pH by the method described for Examples 16 through 33.
as §2, with “1-2 μportions” for “1-2 μl portions”, “of 1.0N” for “of 0.1N”, “with 0.1N, 1.0N and 50 weight %” for “with 0.1N”, “for about 5” for “for 5-10”

[4] = Percent complex determination, yttrium complexes (Sephadex C-25 cation exchange); assay type: physicochemical; details: Y
Procedure: The yttrium and/or samarium complexes of several of the compounds were prepared and percent complexation determined as follows:
Complexes were made by preparing a 0.0003M yttrium solution in water. (YCl3 ·6H2 O, 303.26 g/mole; Y(OAc)3, 12.1% H2 0). Radioactive YCl3 (Oakridge National Laboratories) was added to give the desired number of counts. Ten μl of ligand solution (at 0.03M) were added to 990 μl of the Y solution, giving a ligand-to-metal ratio of 1:1. (Ten times the amount of ligand solution was used for a 10:1 ligand to metal ratio.) The pH was then adjusted to 7.4 using microliter quantities of hydrochloric acid or sodium hydroxide. The solution was then tested for the amount of complexed yttrium using the cation exchange method given below.
as §1, with “100. By this method, uncomplexed yttrium was retained on the column.” for “100.”

[5] = rat, in vivo, iv, 120 min
Procedure: as §3, §4

[6] = rat, in vivo, 120 min
Procedure: Complexes were prepared by mixing a solution of ligand and metal then adjusting the pH to 7-8. The amount of metal that was complexed to ligand was determined by cation exchange chromatography. Free metal was retained by the resin, metal in the form of a complex was not.
One-hundred μl of the complexes were injected into the tail vein of three Sprague Dawley rats. Two hours after injection, the rats were killed by cervical dislocation and samples of tissues were taken. The tissues were weighed and the amount of radiation in each tissue determined by measuring the number of counts using a NaI well counter and comparing them to standards. […] The amount in bone was 25 times the % dose in a femur. […] Non-radioactive metal was used to obtain the desired ligand to metal ratios and tracer radioactive metal was used to obtain the biodistribution.

[7] = Lability of yttrium complexes on addition of excess metal; assay type: physicochemical; details: Y
Procedure: as §1, with “100. By this method, uncomplexed yttrium was retained on the column.” for “100.”
The 1:1 complex of yttrium with 1-(p-aminobenzyl)diethylenetriaminepentaacetic acid (ABDTPA), a well known bifunctional chelant used in the literature, and with the ligand of Example 2 (Now Ex. XVI) and Example 12 (now Ex. XVII) were prepared using the techniques described earlier. Several 100 microliter aliquots were then withdrawn into separate centrifuge tubes. Excess metal was added such that the total volume change is minimized and the time noted. One-half hour after metal addition, the percent complex was determined by the Sephadex™ C-25 method and this was compared to the original amount of complex. The percent complex versus added metal gives an indication as to the lability of the ligand-metal complex. Results are given below and are compared to the EDTA-yttrium complex.

[8] = Sm, ligand/metal ratio about 50:1
[9] = Sm, ligand/metal ratio not stated

Molecule: 2-[(2-[(2-[(2-{[BIS(CARBOXYMETHYL)]AMINO}ETHYL) (CARBOXYMETHYL)AMINO]ETHYL) (CARBOXYMETHYL)AMINO]ETHYL)(CARBOXYMETHYL)AMINO]-2-[5-ACETAMIDO2-(CARBOXYMETHYLOXY) PHENYL]ETHANOIC ACID AND 2[(2-[(2-{[BIS(CARBOXYMETHYL)]AMINO}ETHYL)(CARBOXYMETHYL) AMINO]ETHYL)(2-{[BIS(CARBOXYMETHYL)]AMINO}ETHYL)AMINO]-2-[5-ACETAMIDO-2-(CARBOXYMETHYLOXY) PHENYL]ETHANOIC ACID [Example 9]
- % Complex ([1]; Sm, ligand/metal 10:1): > 99%
- % Injected Dose in Liver ([2]; Sm, ligand/metal 10:1): 2.8%

Molecule: 2-[BIS(2-{[(BIS(CARBOXYMETHYL)] AMINO}ETHYL)AMINO]-2-[5-AMINO-2-(CARBOXYMETHYLOXY) PHENYL]ETHANOIC ACID AND 2-[{2-[(2{[BIS(CARBOXYMETHYL)]AMINO}ETHYL) (CARBOXYMETHYL)AMINO]ETHYL}(CARBOXYMETHYL)AMINO]-2-[5-AMINO-2-(CARBOXYMETHYLOXY)PHENYL]ETHANOIC ACID, SAMARIUM COMPLEX [XXII]
- percent Sm that was complexed ([1]; about pH 7.5, Example XXII): 100%
- % Complexed ([3]; Table V, pH 1, 5-10 minutes): 98%
- % Complexed ([3]; Table V, pH 2, 5-10 minutes): 100%
- % Complexed ([3]; Table V, pH 3, 5-10 minutes): 100%
- % Complexed ([3]; Table V, pH 4, 5-10 minutes): 100%
- % Complexed ([3]; Table V, pH 5, 5-10 minutes): 100%
- % Complexed ([3]; Table V, pH 7, 5-10 minutes): 100%
- % Complexed ([3]; Table V, pH 9, 5-10 minutes): 100%
- % Complexed ([3]; Table V, pH 11, 5-10 minutes): 100%
- % Complexed ([3]; Table V, pH 13, 5-10 minutes): 100%

Molecule: 2-[BIS(2-{[(BIS(CARBOXYMETHYL)]AMINO}ETHYL) AMINO]-2-[5-AMINO-2-(CARBOXYMETHYLOXY)PHENYL]ETHANOIC ACID AND 2-[{2-[(2-{[BIS(CARBOXYMETHYL)]AMINO}ETHYL)(CARBOXYMETHYL)AMINO]ETHYL} (CARBOXYMETHYL)AMINO]-2-[5-AMINO-2-(CARBOXYMETHYLOXY)PHENYL]ETHANOIC ACID [Example 7]
- % Complex [1, 8]: 96%

Molecule: 2-[bis(2-{[(bis(carboxymethyl)]amino}ethyl) amino]-2-[5-acetamido-2-(carboxymethyloxy)phenyl]ethanoic acid and 2-[{2-[(2-{[bis(carboxymethyl)]amino}ethyl)(carboxymethyl)amino]ethyl} (carboxymethyl)amino]-2-[5-acetamido-2-(carboxymethyloxy)phenyl]ethanoic acid [Example 6]
- % Complex ([1]; Sm, ligand/metal 10:1): > 99%
- % Injected Dose in Liver ([2]; Sm, ligand/metal 10:1): 0.38%

Molecule: 2-[{2-[(2{[B IS(CARBOXYMETHYL)]AMINO}ETHYL) (CARBOXYMETHYL) AMINO]ETHYL} (CARBOXYMETHYL) AMINO]-2-[5-AMINO-2-(CARBOXYMETHYLOXY)PHENYL]ETHANOIC ACID, SAMARIUM COMPLEX [XXIII]
- percent complexation ([1]; Sm, pH about 7, Example XXIII): 96%
- % Complexed ([3]; Table VI, pH 1, about 5 minutes): 91%
- % Complexed ([3]; Table VI, pH 2, about 5 minutes): 88%
- % Complexed ([3]; Table VI, pH 3, about 5 minutes): 92%
- % Complexed ([3]; Table VI, pH 5, about 5 minutes): 96%
- % Complexed ([3]; Table VI, pH 7, about 5 minutes): 96%
- % Complexed ([3]; Table VI, pH 9, about 5 minutes): 99%
- % Complexed ([3]; Table VI, pH 12, about 5 minutes): 98%
- % Complexed ([3]; Table VI, pH 13, about 5 minutes): 99%

Molecule: CC(=O)Nc1ccc(O)c(C(NCCN(CC(=O)O)CC(=O)O)C(=O)O)c1 (stereo not shown) [Example 1, 2-[(2-{[bis(carboxymethyl)]amino}ethyl)amino]-2-(5-acetamido-2-hydroxyphenyl)ethanoic acid]
- % Complex ([4]; ligand/metal 10:1): 98%
- % Injected Dose in Liver [5]: 0.87%
- biodistribution, blood (% dose) [6]: 0.57%
- biodistribution, bone (% dose) [6]: 56.1%
- biodistribution, liver (% dose) [6]: 0.87%
- biodistribution, muscle (% dose) [6]: 0.78%
- biodistribution, spleen (% dose) [6]: 0.03%

Molecule: CC(=O)Nc1ccc(OCC(=O)O)c(C(C(=O)O)N(CCN(CC(=O)O)CC(=O)O)CC(=O)O)c1 (stereo not shown) [Example 2, 2-[(2-{[bis(carboxymethyl)]amino}ethyl) (carboxymethyl)amino]-2-[5-acetamido-2-(carboxymethyloxy)phenyl]ethanoic acid]
- % Complex ([4]; ligand/metal 10:1): > 99%
- % Complex ([1]; Sm, ligand/metal 10:1): > 99%
- % Complex ([7]; Metal/Ligand Molar Ratio 1): 99%
- % Complex ([7]; Metal/Ligand Molar Ratio 10, one-half hour after metal addition): 94%
- % Complex ([7]; Metal/Ligand Molar Ratio 100, one-half hour after metal addition): 84%
- % Complex ([7]; Metal/Ligand Molar Ratio 500, one-half hour after metal addition): 75%
- % Injected Dose in Liver [5]: 0.22%

Molecule: Nc1ccc(OCC(=O)O)c(C(C(=O)O)N(CCN(CC(=O)O)CC(=O)O)CC(=O)O)c1 (stereo not shown) [Example 3, 2-[(2-{[BIS(CARBOXYMETHYL)]AMINO}ETHYL) (CARBOXYMETHYL)AMINO]-2-[5-AMINO-2-(CARBOXYMETHYLOXY)PHENYL]ETHANOIC ACID, PENTA SODIUM SALT]
- % Complex ([4]; ligand/metal 10:1): > 99%
- % Injected Dose in Liver [5]: 0.22%

Molecule: CC(=O)Nc1ccc(O)c(C(C(=O)O)N(CC#N)CCN(CC(=O)O)CC(=O)O)c1 (stereo not shown) [Example 4, 2-[(2-{[bis(carboxymethyl)]amino}ethyl) (cyanomethyl)amino]-2-(5-acetamido-2-hydroxyphenyl)ethanoic acid]
- % Complex ([4]; ligand/metal 10:1): > 99%
- % Injected Dose in Liver [5]: 1.4%

Molecule: Nc1ccc(O)c(C(C(=O)O)N(CCN(CC(=O)O)CC(=O)O)CC(=O)O)c1 (stereo not shown) [Example 5, 2-[(2-{[BIS(CARBOXYMETHYL)]-AMINO}ETHYL) (CARBOXYMETHYL)AMINO]-2-(5-AMINO-2HYDROXYPHENYL)ETHANOIC ACID]
- % Complex ([4]; ligand/metal 10:1): 99%
- % Injected Dose in Liver [5]: 0.38%

Molecule: Nc1ccc(OCC(=O)O)c(C(C(=O)O)N(CCN(CCN(CC(=O)O)CC(=O)O)CC(=O)O)CC(=O)O)c1 (stereo not shown) [Example 8, 2-[{2-[(2-{[BIS(CARBOXYMETHYL)]-AMINO}ETHYL) (CARBOXYMETHYL) AMINO]ETHYL}(CARBOXYMETHYL)AMINO ]-2-[5-AMINO-2- CARBOXYMETHYLOXY)PHENYL]ETHANOIC ACID]
- % Complex [1, 8]: > 99%

Molecule: CC(=O)Nc1cc(CN(CCN(CC(=O)O)CC(=O)O)CC(=O)O)c(O)c(CN(CCN(CC(=O)O)CC(=O)O)CC(=O)O)c1 [Example 11]
- % Complex ([4]; ligand/metal 10:1): 99%
- % Complex ([4]; ligand/metal ratio about 1:1): 98%

Molecule: CC(=O)Nc1cc(CN(CCN(CC(=O)O)CC(=O)O)CC(=O)O)c(O)c(CN(CC(=O)O)CC(=O)O)c1 [Example 15, 2-({[BIS(CARBOXYMETHYL)]AMINO}METHYL)-6-{[({[BIS(CARBOXYMETHYL)]AMINO}ETHYL)((CARBOXYMETHYL)AMINO]METHYL}-4-(ACETAMIDO)PHENOL]
- % Complex ([4]; ligand/metal 10:1): 99%
- % Injected Dose in Liver [5]: 0.37%

Molecule: CC(=O)Nc1ccc(O)c(CN(CCN(CC(=O)O)Cc2cc(NC(C)=O)ccc2O)CC(=O)O)c1 [Example U, N,N'-DI(2-HYDROXY, 5-ACETAMIDOBENZYL)ETHYLENEDIAMINE-N,N'-DIACETIC ACID, reference compound]
- % Injected Dose in Liver [2, 9]: 12%

Molecule: Nc1ccc(O)c(C(NCCNC(C(=O)O)c2cc(N)ccc2O)C(=O)O)c1 (stereo not shown) [Example X, […][(2-HYDROXY-5AMINOPHENYL)ACETIC ACID], reference compound]
- % Injected Dose in Liver [2, 9]: 24%

Molecule: [Cl][Sm]([Cl])[Cl] [SmCl3, samarium chloride, reference compound]
- % Injected Dose in Liver ([2]; Sm injected as samarium chloride in unchelated form): 39%
